Results from US9725442B2, “Heterocyclic derivative having PGD2 receptor antagonist activity” (Shionogi & Co., Ltd., priority 2011, dated 2017).
Read-outs that look alike come from different tables or passages of the source.

Assays:
Human DP1 receptor = Human DP1 receptor (Homo sapiens (Human), UniProt Q13258); assay: Human DP1 inhibitory activity in DP1-expressing cell (PGD2-induced cAMP); type: cell-based
Method: Compounds were categorized as AA (cAMP is less than 100 nM) and A (cAMP is more than 100 nM and less than 5000 nM) as shown in Table 99 and 100.

CRTH2 = CRTH2 (Homo sapiens (Human), UniProt Q9Y5Y4); assay: CRTH2 receptor binding inhibitory activity ([3H]-PGD2 displacement, membranes of CRTH2-expressing K562 cell)
CRTH2, sequence (Q9Y5Y4 whole entry): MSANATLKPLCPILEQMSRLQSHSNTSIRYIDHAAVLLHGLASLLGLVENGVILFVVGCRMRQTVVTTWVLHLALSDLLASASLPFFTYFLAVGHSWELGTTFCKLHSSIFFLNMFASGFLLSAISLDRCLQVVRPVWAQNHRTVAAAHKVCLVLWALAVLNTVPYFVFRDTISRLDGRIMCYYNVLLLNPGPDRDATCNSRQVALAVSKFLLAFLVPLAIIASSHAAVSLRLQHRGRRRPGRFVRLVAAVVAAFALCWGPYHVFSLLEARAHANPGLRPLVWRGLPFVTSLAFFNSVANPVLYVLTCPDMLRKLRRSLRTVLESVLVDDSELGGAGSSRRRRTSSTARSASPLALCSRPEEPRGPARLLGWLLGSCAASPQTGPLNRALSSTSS
Method: Cell membrane was prepared from CRTH2-expressing K562 cell. The cell membrane (20 μg/well) was mixed with reaction buffer (50 mM Tris/HCl, pH 7.4, 10 mM MgCl2). Then, [^3H]-PGD2 was added to the mixture and incubated for 60 min at room temperature. […] Then, the mixture was filtrated with glass paper immediately. The filter paper was washed several times and radio activity on the filter was measured. Specific binding was defined as difference between total and non-specific binding (radio activity with 10 μM PGD2). Ki values for each compound were calculated from displacement curve.

[1] = category of cAMP IC50, human DP1 receptor expressing Jurkut cell
[2] = CRTH2 receptor binding, [3H]-PGD2 displacement, membrane of CRTH2-expressing K562 cell, categorized AAAA/AAA, read-out: Ki
[3] = [3H]-PGD2 displacement, membrane of CRTH2-expressing K562 cell, read-out: Ki
[4] = IC50 of PGD2 (60 nM)-induced cAMP increase, human DP1 receptor expressing Jurkut cell

Human DP1 receptor, sequence (Q13258 whole entry): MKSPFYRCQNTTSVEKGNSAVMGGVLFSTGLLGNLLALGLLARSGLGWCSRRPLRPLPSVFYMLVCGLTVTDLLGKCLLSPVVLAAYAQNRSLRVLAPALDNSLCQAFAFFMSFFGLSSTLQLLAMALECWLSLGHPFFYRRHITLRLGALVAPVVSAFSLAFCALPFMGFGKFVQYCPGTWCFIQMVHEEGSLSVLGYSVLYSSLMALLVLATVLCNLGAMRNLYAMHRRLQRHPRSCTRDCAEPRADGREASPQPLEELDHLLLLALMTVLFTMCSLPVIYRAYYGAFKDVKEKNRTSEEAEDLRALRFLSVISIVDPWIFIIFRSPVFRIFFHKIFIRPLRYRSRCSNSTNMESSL

Row | Compound | IC50 (Human DP1 receptor; [1]) [µM] | Ki (CRTH2; [2]) [µM] | Ki (CRTH2; [3]) [µM] | IC50 (Human DP1 receptor; [4]) [µM] | Ki (CRTH2) [µM]
1 | C[C@@H]1CN(S(=O)(=O)c2ccc(OC(F)F)cc2)C[C@@H]1n1nc(CC(=O)O)c2ccccc21 [Compound I-98] | < 0.1 | < 0.1 | – | – | –
2 | CCOCCOc1ccc(S(=O)(=O)N2C[C@@H](C)[C@@H](n3nc(CC(=O)O)c4ccccc43)C2)cc1 [Compound I-191] | 0.1 to 5 | < 0.1 | – | – | –
3 | CC(C)Oc1ccc(S(=O)(=O)N2C[C@@H](C)[C@@H](n3nc(CC(=O)O)c4ccccc43)C2)cn1 [Compound I-99] | < 0.1 | < 0.1 | – | – | –
4 | CCOc1ccc(S(=O)(=O)N2C[C@@H](C)[C@@H](n3nc(CC(=O)O)c4ccccc43)C2)c(CCO)c1 [Compound I-314] | 0.1 to 5 | < 0.1 | – | – | –
5 | CCOc1ccc(S(=O)(=O)N2C[C@@H](C)[C@@H](n3nc(C(O)C(=O)O)c4ccccc43)C2)cc1 (single isomer, unassigned) [Compound I-306] | 0.1 to 5 | 0.1 to 5 | – | – | –
6 | CCOc1ccc(S(=O)(=O)N2C[C@@H](C)[C@@H](n3nc(CC(=O)O)c4ccccc43)C2)c(CO)c1 [Compound I-277] | < 0.1 | < 0.1 | – | – | –
7 | C[C@@H]1CN(S(=O)(=O)c2cc3ccccc3s2)C[C@@H]1n1nc(CC(=O)O)c2ccccc21 [Compound I-152] | 0.1 to 5 | < 0.1 | 0.056 | – | –
8 | O=C(O)Cc1nn([C@@H]2C[C@H]3CC[C@@H](C2)N3S(=O)(=O)c2ccc(F)cc2)c2cc(F)ccc12 [Compound I-80] | 0.1 to 5 | – | – | – | 0.1 to 5
9 | [2H]c1ccc2c(c1)c(CC(=O)O)nn2[C@H]1CN(S(=O)(=O)c2ccc(OCC)cc2)C[C@H]1C [Compound I-264] | < 0.1 | < 0.1 | – | – | –
10 | C[C@@H]1CN(S(=O)(=O)c2ccc(OCF)cc2)C[C@@H]1n1nc(CC(=O)O)c2ccccc21 [Compound I-270] | < 0.1 | < 0.1 | – | – | –
11 | C[C@@H]1CN(S(=O)(=O)c2ccc(C(F)(F)F)cc2)C[C@@H]1n1nc(CC(=O)O)c2ccc(F)cc21 [Compound I-119] | 0.1 to 5 | < 0.1 | – | – | –
12 | C[C@@H]1CN(S(=O)(=O)c2ccc(OC(F)F)cc2)C[C@@H]1n1nc(CC(=O)O)c2ccc(Cl)cc21 [Compound I-134] | < 0.1 | < 0.1 | – | – | –
13 | C[C@@H]1CN(S(=O)(=O)c2ccc(OC(F)(F)F)cc2)C[C@@H]1n1nc(CC(=O)O)c2ccc(F)cc21 [Compound I-120] | < 0.1 | < 0.1 | – | – | –
14 | CC(C)Oc1ccc(S(=O)(=O)N2C[C@@H](C)[C@@H](n3nc(/C=C/C(=O)O)c4ccc(F)cc43)C2)cc1 [Compound I-100] | 0.1 to 5 | < 0.1 | – | – | –
15 | Cc1ccc2c(c1)c(CC(=O)O)nn2[C@H]1CN(S(=O)(=O)c2ccc(OC(C)C)cc2)C[C@H]1C [Compound I-203] | < 0.1 | 0.1 to 5 | – | – | –
16 | Cc1nc2ccc(S(=O)(=O)N3C[C@@H](C)[C@@H](n4nc(CC(=O)O)c5ccccc54)C3)cc2s1 [Compound I-214] | < 0.1 | 0.1 to 5 | – | – | –

Row | Compound | IC50 (Human DP1 receptor; [1]) [µM] | Ki (CRTH2; [2]) [µM] | Ki (CRTH2; [3]) [µM] | IC50 (Human DP1 receptor; [4]) [µM] | Ki (CRTH2) [µM]
17 | CCOc1ccc(S(=O)(=O)N2C[C@@H](C)[C@@H](n3nc(CC(=O)O)c4cc(F)ccc43)C2)cc1 [Compound I-252] | < 0.1 | < 0.1 | – | – | –
18 | C[C@@H]1C[C@@H](n2nc(CC(=O)O)c3ccc(F)cc32)CCN1S(=O)(=O)c1ccc(F)cc1 [Compound I-79] | 0.1 to 5 | 0.1 to 5 | – | – | –
19 | CCOc1ccc(S(=O)(=O)N2C[C@@H](C)[C@@H](n3nc(CC(=O)O)c4ccccc43)C2)c(CCCNC(C)=O)c1 [Compound I-260] | 0.1 to 5 | < 0.1 | 0.021 | – | –
20 | CCOc1ccc(S(=O)(=O)N2C[C@@H](C)[C@@H](n3nc(C(O)C(=O)O)c4ccccc43)C2)cc1 (single isomer, unassigned) [Compound I-307] | 0.1 to 5 | 0.1 to 5 | – | – | –
21 | CCOc1ccc(S(=O)(=O)N2C[C@@H](C)[C@@H](n3nc(CC(=O)NS(C)(=O)=O)c4ccccc43)C2)cc1 [Compound I-212] | 0.1 to 5 | 0.1 to 5 | – | – | –
22 | CCOc1ccc(S(=O)(=O)N2C[C@@H](C)[C@H](n3nc(CC(=O)O)c4ccccc43)C2)cc1 [Compound I-197] | 0.1 to 5 | 0.1 to 5 | – | – | –
23 | CCOc1ccc(S(=O)(=O)N2C[C@@H](C)[C@@H](n3nc(CC(=O)O)c4ccccc43)C2)cc1[N+](=O)[O-] [Compound I-188] | 0.1 to 5 | 0.1 to 5 | – | – | –
24 | Cc1c(CC(=O)O)c2ccccc2n1[C@@H]1C[C@H](C)N(S(=O)(=O)c2ccc(OC(F)F)cc2)C1 [Compound I-316] | 0.1 to 5 | 0.1 to 5 | 0.22 | 0.11 | –
25 | CCOc1ccc(S(=O)(=O)N2C[C@@H](C)[C@@H](n3nc(CC(=O)O)c4cc(C)ccc43)C2)cn1 [Compound I-265] | < 0.1 | < 0.1 | – | – | –
26 | CCOc1ccc(S(=O)(=O)N2C[C@@H](C)[C@@H](n3nc(CC(=O)O)c4ccccc43)C2)c(CCCOC)c1 [Compound I-183] | 0.1 to 5 | < 0.1 | – | – | –
27 | CCOc1ccc(S(=O)(=O)N2C[C@@H](C)[C@@H](n3nc(CC(=O)O)c4ccccc43)C2)c(CCc2ccccc2)c1 [Compound I-186] | 0.1 to 5 | < 0.1 | – | – | –
28 | CCOc1ccc(S(=O)(=O)N2C[C@H](n3nc(CC(=O)O)c4ccccc43)[C@@](C)(F)C2)cc1 (racemic) [Compound I-228] | < 0.1 | < 0.1 | – | – | –
29 | CC(C)Oc1ccc(S(=O)(=O)N2C[C@@H](C)[C@@H](n3nc(CC(=O)O)c4cc5c(cc43)OCO5)C2)cc1 [Compound I-174] | < 0.1 | < 0.1 | 0.05 | 0.099 | –
30 | COc1ccc(S(=O)(=O)N2C[C@@H](C)[C@@H](n3nc(CC(=O)O)c4ccccc43)C2)cc1 [Compound I-241] | < 0.1 | < 0.1 | – | – | –
31 | C=Cc1cc(OCC)ccc1S(=O)(=O)N1C[C@@H](C)[C@@H](n2nc(CC(=O)O)c3ccccc32)C1 [Compound I-276] | < 0.1 | < 0.1 | – | – | –

Continued, in another order:

Row | IC50 (Human DP1 receptor; [1]) [µM] | Ki (CRTH2; [2]) [µM] | Ki (CRTH2; [3]) [µM] | IC50 (Human DP1 receptor; [4]) [µM] | Compound | Ki (CRTH2) [µM]
32 | 0.1 to 5 | < 0.1 | – | – | CC(C)Oc1ccc(S(=O)(=O)N2C[C@H](n3nc(CC(=O)O)c4ccc(F)cc43)CC23CC3)cc1 [Compound I-54] | –
33 | 0.1 to 5 | < 0.1 | – | – | COC[C@@H]1C[C@@H](n2nc(CC(=O)O)c3ccc(F)cc32)CN1S(=O)(=O)c1ccc(OC(C)C)cc1 [Compound I-16] | –
34 | 0.1 to 5 | 0.1 to 5 | – | – | CC(C)Oc1ccc(S(=O)(=O)N2C[C@H](n3nc(CC(=O)O)c4ccc(F)cc43)C[C@@H]2c2nc[nH]n2)cc1 [Compound I-55] | –
35 | < 0.1 | < 0.1 | – | – | CC(C)Oc1ccc(S(=O)(=O)N2C[C@H](n3nc(CC(=O)O)c4ccc(F)cc43)C[C@@H]2CF)cc1 [Compound I-13] | –
36 | 0.1 to 5 | 0.1 to 5 | – | – | CCCOC[C@H]1C[C@@H](n2nc(CC(=O)O)c3ccc(F)cc32)CN1S(=O)(=O)c1ccc(OC(C)C)cc1 [Compound I-327] | –
37 | < 0.1 | < 0.1 | – | – | CC[C@H]1C[C@@H](n2nc(CC(=O)O)c3ccc(F)cc32)CN1S(=O)(=O)c1ccc(OC(C)C)cc1 [Compound I-103] | –
38 | 0.1 to 5 | < 0.1 | – | – | CC(C)Oc1ccc(S(=O)(=O)N2CC(=O)C(n3nc(CC(=O)O)c4ccc(F)cc43)C2)cc1 (stereo not drawn) [Compound I-27] | –
39 | 0.1 to 5 | 0.1 to 5 | – | – | CC(C)Oc1ccc(S(=O)(=O)N2C[C@H](n3nc(CC(=O)O)c4ccc(F)cc43)C[C@H]2c2ccncc2)cc1 [Compound I-362] | –
40 | 0.1 to 5 | 0.1 to 5 | – | – | Cc1noc([C@H]2C[C@@H](n3nc(CC(=O)O)c4ccc(F)cc43)CN2S(=O)(=O)c2ccc(OC(C)C)cc2)n1 [Compound I-364] | –
41 | < 0.1 | 0.1 to 5 | – | – | CC(C)Oc1ccc(S(=O)(=O)N2C[C@H](n3nc(CC(=O)O)c4ccc(F)cc43)C[C@@H]2COc2cccc(I)c2)cc1 [Compound I-295] | –
42 | < 0.1 | 0.1 to 5 | – | – | CCOc1ccc(S(=O)(=O)N2C[C@H](n3nc(CC(=O)O)c4ccccc43)C[C@@H]2CF)cc1 [Compound I-209] | –
43 | < 0.1 | < 0.1 | – | – | CC[C@@H]1CN(S(=O)(=O)c2ccc(OC(C)C)cc2)C[C@@H]1n1nc(CC(=O)O)c2ccc(F)cc21 [Compound I-39] | –
44 | < 0.1 | < 0.1 | – | – | CC(C)Oc1ccc(S(=O)(=O)N2C[C@H](n3nc(CC(=O)O)c4ccccc43)C[C@@H]2C)cc1 [Compound I-91] | –
45 | 0.1 to 5 | 0.1 to 5 | – | – | CC(C)Oc1ccc(S(=O)(=O)N2CC[C@H](n3nc(CC(=O)O)c4ccc(F)cc43)C[C@H]2C)cc1 [Compound I-78] | –
46 | < 0.1 | < 0.1 | – | – | COc1ccc2c(CC(=O)O)nn([C@H]3CN(S(=O)(=O)c4ccc(OC(C)C)cc4)C[C@H]3C)c2c1 [Compound I-204] | –
47 | < 0.1 | < 0.1 | – | – | C=CC[C@@H]1CN(S(=O)(=O)c2ccc(OC(C)C)cc2)C[C@@H]1n1nc(CC(=O)O)c2ccc(F)cc21 [Compound I-32] | –
48 | 0.1 to 5 | 0.1 to 5 | – | – | CC(C)NC(=O)[C@@H]1C[C@@H](n2nc(CC(=O)O)c3ccc(F)cc32)CN1S(=O)(=O)c1ccc(OC(C)C)cc1 [Compound I-6] | –
49 | < 0.1 | 0.1 to 5 | – | – | CC(C)Oc1ccc(S(=O)(=O)N2C[C@H](n3nc(CC(=O)O)c4ccc(F)cc43)C[C@@H]2COc2ccccc2O)cc1 [Compound I-292] | –
50 | < 0.1 | < 0.1 | – | – | CC(C)Oc1ccc(S(=O)(=O)N2C[C@H](n3nc(CC(=O)O)c4ccc(F)cc43)C[C@@H]2Cc2ccccc2)cc1 [Compound I-348] | –
51 | < 0.1 | < 0.1 | – | – | CC(C)Oc1ccc(S(=O)(=O)N2C[C@@H](C)[C@@H](n3nc(CC(=O)O)c4ccc(F)cc43)C2)cc1 [Compound I-29] | –
